Key:
Conditions in all cases: 0.5 h
[1] = Drug uptake in rat Clone 9 cells assessed as localization to endoplasmic reticulum after 30 mins by fluorescence microscopy; assay type: ADME, cell-based
[2] = Drug uptake in rat Clone 9 cells assessed as accumulation in endoplasmic reticulum after 30 mins by fluorescence microscopy; assay type: ADME, cell-based
[3] = Drug uptake in rat Clone 9 cells assessed as accumulation in lysosomes after 30 mins by fluorescence microscopy; assay type: ADME, cell-based
[4] = Drug uptake in rat Clone 9 cells assessed as accumulation in cytoplasm after 30 mins by fluorescence microscopy; assay type: ADME, cell-based
[5] = Drug uptake in rat Clone 9 cells assessed as accumulation in mitochondria after 30 mins by fluorescence microscopy; assay type: ADME

Measured: Drug uptake

COc1ccccc1C1=[N+]2C(=C(c3ccc(C#Cc4ccc(C5=[N+]6C(=Cc7c(C)c(S(=O)(=O)[O-])c(C)n7[B-]6(F)F)C(=O)N5C)cc4)cc3OCC(=O)O)c3ccc(-c4ccccc4OC)n3[B-]2(F)F)C=C1.[Na+]
Active: [1] | [2] | [3]

COc1cc(C#Cc2ccc3c(c2)C(C)(C)C(/C=C/C=C2/N(CCCCCC(=O)O)c4ccccc4C2(C)C)=[N+]3C)ccc1C1=C2C(C)=CC(C)=[N+]2[B-](F)(F)n2c(C)cc(C)c21.[I-]
not listed: [2]
Active: all other assays above

From ChEMBL document CHEMBL1681714, “Organelle-selective energy transfer: a fluorescent indicator of intracellular environment” (Bioorg Med Chem Lett, 2011)
